Data taken from patent publication US9045435B2, “Quinazoline compounds as sodium channel blockers” (Purdue Pharma, L.P., priority 2010, dated 2015).

Biological target: human Nav1.7 (Homo sapiens, UniProt Q15858)
Assay: FLIPR or FLIPR TETRA sodium dye assay with KCl and test article pre-incubation
Format: cell-based
Settings: sodium dye assay with KCl; recombinant Nav1.7/HEK293 cells; read-out: FLIPR Nav1.7 IC50 (μM) ± SEM

Chain of human Nav1.7 (Q15858 1-1977 isoform Q15858-3): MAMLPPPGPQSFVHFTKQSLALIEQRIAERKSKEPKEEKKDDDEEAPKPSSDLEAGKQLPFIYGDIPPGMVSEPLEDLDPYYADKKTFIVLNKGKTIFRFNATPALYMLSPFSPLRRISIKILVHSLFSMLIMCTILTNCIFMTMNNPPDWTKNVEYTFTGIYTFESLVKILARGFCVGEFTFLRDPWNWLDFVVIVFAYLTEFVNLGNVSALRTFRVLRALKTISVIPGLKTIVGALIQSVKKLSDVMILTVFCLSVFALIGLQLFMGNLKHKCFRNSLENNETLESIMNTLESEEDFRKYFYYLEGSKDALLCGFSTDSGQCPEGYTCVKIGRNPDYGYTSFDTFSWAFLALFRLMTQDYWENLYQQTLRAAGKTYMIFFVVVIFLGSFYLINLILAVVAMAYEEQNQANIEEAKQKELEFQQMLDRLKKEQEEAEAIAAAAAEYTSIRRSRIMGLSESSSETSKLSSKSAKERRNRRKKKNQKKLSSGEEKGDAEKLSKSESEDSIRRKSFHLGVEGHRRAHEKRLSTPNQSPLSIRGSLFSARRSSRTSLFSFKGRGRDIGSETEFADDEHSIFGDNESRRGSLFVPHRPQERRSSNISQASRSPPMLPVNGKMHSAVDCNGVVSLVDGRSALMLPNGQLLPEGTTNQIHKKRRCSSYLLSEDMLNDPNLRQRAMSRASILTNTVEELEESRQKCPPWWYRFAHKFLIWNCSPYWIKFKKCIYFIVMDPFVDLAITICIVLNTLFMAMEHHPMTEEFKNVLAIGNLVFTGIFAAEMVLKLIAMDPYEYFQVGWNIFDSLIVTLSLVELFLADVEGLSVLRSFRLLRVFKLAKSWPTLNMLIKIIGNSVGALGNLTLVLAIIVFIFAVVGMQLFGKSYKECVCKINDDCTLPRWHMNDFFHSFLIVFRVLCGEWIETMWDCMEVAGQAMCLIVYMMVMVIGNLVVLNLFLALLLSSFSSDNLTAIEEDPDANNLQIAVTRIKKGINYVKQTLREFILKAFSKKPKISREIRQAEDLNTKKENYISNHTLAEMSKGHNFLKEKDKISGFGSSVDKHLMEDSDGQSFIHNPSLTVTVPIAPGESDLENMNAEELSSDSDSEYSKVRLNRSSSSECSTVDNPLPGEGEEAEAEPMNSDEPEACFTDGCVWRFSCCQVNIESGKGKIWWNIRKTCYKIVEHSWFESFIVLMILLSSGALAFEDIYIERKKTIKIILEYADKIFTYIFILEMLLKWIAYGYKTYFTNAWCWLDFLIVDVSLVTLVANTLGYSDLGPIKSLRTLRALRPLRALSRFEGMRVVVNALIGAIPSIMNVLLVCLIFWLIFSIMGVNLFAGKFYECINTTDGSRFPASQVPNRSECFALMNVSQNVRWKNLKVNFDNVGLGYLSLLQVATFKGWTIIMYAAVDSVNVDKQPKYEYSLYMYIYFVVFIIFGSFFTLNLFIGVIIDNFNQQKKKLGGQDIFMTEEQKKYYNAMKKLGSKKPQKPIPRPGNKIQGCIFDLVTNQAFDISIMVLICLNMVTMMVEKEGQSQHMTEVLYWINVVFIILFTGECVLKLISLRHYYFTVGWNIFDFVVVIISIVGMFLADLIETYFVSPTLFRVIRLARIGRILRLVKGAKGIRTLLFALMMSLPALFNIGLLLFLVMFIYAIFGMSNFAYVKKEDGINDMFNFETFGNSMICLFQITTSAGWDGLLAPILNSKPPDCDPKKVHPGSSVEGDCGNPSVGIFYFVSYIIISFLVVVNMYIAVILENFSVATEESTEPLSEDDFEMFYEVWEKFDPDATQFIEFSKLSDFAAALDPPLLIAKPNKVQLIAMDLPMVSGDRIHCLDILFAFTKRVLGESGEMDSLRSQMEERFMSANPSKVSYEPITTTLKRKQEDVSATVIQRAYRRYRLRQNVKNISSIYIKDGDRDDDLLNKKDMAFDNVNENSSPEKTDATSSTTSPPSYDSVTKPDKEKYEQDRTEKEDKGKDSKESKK

`OC[C@@H](O)CNc1nc(-c2ccc(Oc3ccc(F)cc3)cc2)c2ccccc2n1` [Compound 13r, (S)-3-((4-(4-(4-fluorophenoxy)phenyl)quinazolin-2-yl)amino)propane-1,2-diol] and `OCCNc1nc(-c2ccc(Oc3ccc(F)cc3)cc2)c2ccccc2n1` [Compound 13c, 2-((4-(4-(4-fluorophenoxy)phenyl)quinazolin-2-yl)amino)ethanol] are within 1.5-fold of each other in IC50: 0.32 µM for the first, 0.369 µM for the second.

Compared with `CCOc1nc(-c2ccc(Oc3ccc(F)cc3)cc2)c2ccccc2n1` [Compound 13y, 2-ethoxy-4-(4-(4-fluorophenoxy)phenyl)-quinazoline], `Nc1nc(-c2ccc(Oc3ccc(F)cc3)cc2)c2ccccc2n1` [Compound 13e, 4-(4-(4-fluorophenoxy)phenyl)quinazolin-2-amine] is 2.3-fold lower in IC50: 0.995 µM for the first, 0.426 µM for the second.

First: CNc1nc(-c2ccc(Oc3ccc(F)cc3)cc2)c2ccccc2n1 [Compound 13n, 4-(4-(4-fluorophenoxy)phenyl)-N-methylquinazolin-2-amine]
Second: NC(=O)CNc1nc(-c2ccc(Oc3ccc(F)cc3)cc2)c2ccccc2n1 [Compound 13x, 2-((4-(4-(4-fluorophenoxy)phenyl)quinazolin-2-yl)amino)acetamide]
The IC50 of the first is lower: 0.294 µM for the first, greater than 20 µM for the second.

Going from `NC(=O)C[C@H](Nc1nc(-c2ccc(Oc3ccc(F)cc3)cc2)c2ccccc2n1)C(N)=O` [Compound 13s, (S)-2-((4-(4-(4-fluorophenoxy)phenyl)quinazolin-2-yl)amino)succinamide] to `OC[C@@H](O)c1nc(-c2ccc(Oc3ccc(F)cc3)cc2)c2ccccc2n1` [Compound 10, (S)-1-(4-(4-(4-fluorophenoxy)phenyl)quinazolin-2-yl)ethane-1,2-diol], the IC50 rises from 0.313 µM to 0.849 µM (2.7-fold).

First: COC(=O)[C@@H]1C[C@@H](O)CN1c1nc(-c2ccc(Oc3ccc(F)cc3)cc2)c2ccccc2n1 [Compound 13m, (2S,4R)-methyl 1-(4-(4-(4-fluorophenoxy)phenyl)quinazolin-2-yl)-4-hydroxypyrrolidine-2-carboxylate]
Second: OC1CCN(c2nc(-c3ccc(Oc4ccc(F)cc4)cc3)c3ccccc3n2)CC1 [Compound 13i, 1-(4-(4-(4-fluorophenoxy)phenyl)quinazolin-2-yl)piperidin-4-ol]
The IC50 of the first is 1.9-fold higher: 0.833 µM for the first, 0.428 µM for the second.

`CN(N)c1nc(-c2ccc(Oc3ccc(F)cc3)cc2)c2ccccc2n1` [Compound 13g, 4-(4-(4-fluorophenoxy)phenyl)-2-(1-methylhydrazinyl)quinazoline] and `CN(C)CCNc1nc(-c2ccc(Oc3ccc(F)cc3)cc2)c2ccccc2n1` [Compound 13d, N^1-(4-(4-(4-fluorophenoxy)phenyl)quinazolin-2-yl)-N^2,N^2-dimethylethane-1,2-diamine] are within 1.5-fold of each other in IC50: 0.309 µM for the first, 0.317 µM for the second.

First: Fc1ccc(Oc2ccc(-c3nc(NCCCn4ccnc4)nc4ccccc34)cc2)cc1 [Compound 13o, N-(3-(1H-imidazol-1-yl)propyl)-4-(4-(4-fluorophenoxy)phenyl)quinazolin-2-amine]
Second: CN(C)CCCNc1nc(-c2ccc(Oc3ccc(F)cc3)cc2)c2ccccc2n1 [Compound 13p, N^1-(4-(4-(4-fluorophenoxy)phenyl)quinazolin-2-yl)-N^3,N^3-dimethylpropane-1,3-diamine]
The IC50 of the first is 1.6-fold higher: 0.325 µM for the first, 0.205 µM for the second. The second is the more potent here.

Compared with `O=C1CN(c2nc(-c3ccc(Oc4ccc(F)cc4)cc3)c3ccccc3n2)CCN1` [Compound 13b, 4-(4-(4-(4-fluorophenoxy)phenyl)quinazolin-2-yl)piperazin-2-one], `OCCN1CCN(c2nc(-c3ccc(Oc4ccc(F)cc4)cc3)c3ccccc3n2)CC1` [Compound 13j, 2-(4-(4-(4-(4-fluorophenoxy)phenyl)quinazolin-2-yl)piperazin-1-yl)ethanol] is 8.1-fold lower in IC50: 0.839 µM for the first, 0.104 µM for the second.

`Fc1ccc(Oc2ccc(-c3nc(Oc4ccccn4)nc4ccccc34)cc2)cc1` [Compound 13z, 4-(4-(4-fluorophenoxy)phenyl)-2-(pyridin-2-yloxy)quinazoline] and `CCOC(=O)c1nc(-c2ccc(Oc3ccccc3)cc2)c2ccccc2n1` [Compound 3, ethyl 4-(4-phenoxyphenyl)quinazoline-2-carboxylate] are within 1.5-fold of each other in IC50: 1.91 µM for the first, 1.57 µM for the second.
